In ChEMBL document CHEMBL1821617, “Monanchocidins B-E: polycyclic guanidine alkaloids with potent antileukemic activities from the sponge Monanchora pulchra” (J Nat Prod, 2011):

Test system: HL-60
Test: Cytotoxicity against human HL60 cells after 72 hrs by MTS assay
Type: functional, cell-based
Settings: HL-60, 72 h

SMILES | IC50
CC/C=C/[C@@H]1CC[C@]2(C[C@H]3CC[C@H]4[C@@H](C(=O)OC(CC)CCCCCCCCCCCCC[C@@H]5O[C@](O)(CCN)[C@H](O)N(CCCN)C5=O)[C@@]5(CCC[C@H](C)O5)NC(=[N+]34)N2)O1 (stereo partly specified) [MONANCHOCIDIN A] | 540 nM
CC[C@@H]1C=CCC[C@]2(C[C@H]3CC[C@H]4[C@@H](C(=O)OCCCCCCCCCCCCCC[C@@H]5O[C@](O)(CCN)[C@H](O)N(CCCN)C5=O)[C@@]5(CCC[C@H](C)O5)NC(=[N+]34)N2)O1 [MONANCHOCIDIN B] | 200 nM
CC[C@@H]1C=CCC[C@]2(C[C@H]3CC[C@H]4[C@@H](C(=O)OCCCCCCCCCCCCCCC[C@@H]5O[C@](O)(CCN)[C@H](O)N(CCCN)C5=O)[C@@]5(CCC[C@H](C)O5)NC(=[N+]34)N2)O1 [MONANCHOCIDIN C] | 110 nM
CC/C=C/[C@@H]1CC[C@]2(C[C@H]3CC[C@H]4[C@@H](C(=O)OC(CC)CCCCCCCCCCCC[C@@H]5O[C@](O)(CCN)[C@H](O)N(CCCN)C5=O)[C@@]5(CCC[C@H](C)O5)NC(=[N+]34)N2)O1 (stereo partly specified) [MONANCHOCIDIN E] | 650 nM
CC/C=C/[C@@H]1CC[C@]2(C[C@H]3CC[C@H]4[C@@H](C(=O)OCCCCCCCCCCCCCC[C@@H]5O[C@](O)(CCN)[C@H](O)N(CCCN)C5=O)[C@@]5(CCC[C@H](C)O5)NC(=[N+]34)N2)O1 [MONANCHOCIDIND] | 830 nM
CC(=O)O[C@H]1C(=O)[C@@]2(C)[C@H]([C@H](OC(=O)c3ccccc3)[C@]3(O)C[C@H](OC(=O)[C@H](O)[C@@H](NC(=O)c4ccccc4)c4ccccc4)C(C)=C1C3(C)C)[C@]1(OC(C)=O)CO[C@@H]1C[C@@H]2O [PACLITAXEL] | 3.4 nM
